Data set [1] has as its system human leukaemia 60 cells (HL60). Put plainly: Fluorescence imaging of MG in isolated human leukaemia cells. Type of data set: cell-based. As to conditions: HL60 cells 1×10^5 per ml, DAF-2 10 μM 40 min 37° C., washed, 30-120 min; excitation laser 457 nm, emission filter 470-500 nm.
Data set [2] is described as follows: Incubation of DAF-2 with the NO donor DETA-nonoate, fluorescence. The class given is physicochemical. Conditions: DAF-2 50 μM + DETA-nonoate 10 μM, 10 mM sodium phosphate buffer pH 7.4, 37° C., one hour. On the procedure: 4,5-Diaminofluorescein (DAF-2) was a fluorogenic probe developed for the detection of nitric oxide. 4,5-Diaminorhodamine (DAR), 8-(3,4-diaminophenyl)-2,6-bis(2-carboxyethyl)-4,4-difluoro-1,3,5,7-tetramethyl-4-bora-3a,4a-diaza-s-indacene (DAM BO-P″) and o-diaminocyanine are analogous o-diamino derivatizing agents based on different intense fluorophores. DAF-2 reacts with nitric oxide to form the fluorophore triazolofluorescein [6]. For example, incubation of DAF-2 (50 μM) with the NO donor (Z)-1-[2-(2-aminoethyl)-N-(2-ammonioethyl)amino]diazen-1-ium-1,2-diolate (DETA-nonoate), 10 μM, in 10 mM sodium phosphate buffer, pH 7.4 at 37° C., for one hour gave characteristic fluorescence of triazolofluorescein—excitation and emission maximum wavelengths of 491 and 515 nm, respectively. A further metabolite that reacts with DAF-2 is ascorbic acid which forms adducts DAF-2-DHA-5008 and DAF-2-DHA-518 which are fluorescent with excitation and emission wavelength maxima of 490 and 514 nm, respectively.

In the case of `Nc1cc2c(cc1N)C1(OC2=O)c2ccc(O)cc2Oc2cc(O)ccc21` [DAF-2, 4,5-diaminofluorescein], in data set [1], the “fluorescence image of endogenous MG in cells” value is reported as “fluorescence indicate of the DAF-2 MG adduct”.
With `O=C1OC2(c3ccc(O)cc3Oc3cc(O)ccc32)c2ccc3[nH]nnc3c21` [triazolofluorescein], in data set [2], the emission maximum wavelength is 515 nm and the excitation maximum wavelength is 491 nm.
